Results from patent publication US11414436B2, “Non-coordinating anion type activators containing cation having large alkyl groups” (ExxonMobil Chemical Patents Inc., priority 2018, dated 2022).
Values joined by “and” are separate entries in the source; they are usually repeats but may differ in a detail not shown here. Identical values can stand only once.

Legend:
[1] = RUN B: ethylene-octene polymerization in parallel pressure reactor, activator diluent toluene or methylcyclohexane; settings: ethylene-octene copolymerization; for activity: Cat 1 (MCN-1)
Description: RUN B: Polymerization in Parallel Pressure Reactor.
A series of ethylene-octene polymerizations were performed in the parallel pressure reactor according to the procedure described above. […] In a typical experiment an automated syringe was used to introduce into the reactor the following reagents, if utilized, in the following order: isohexane (0.35 mL), an isohexane solution of TNOAL scavenger (0.005 M, 60 μL), additional isohexane (0.35 mL), a toluene solution of the respective polymerization catalyst (150 μL, 0.4 mM, 20 nm [cat]/100 μL [toluene]), additional isohexane (0.35 mL), a toluene or methylcyclohexane solution of the respective activator (150 μL, 0.4 mM, (20 nm [act]/100 μL[ diluent])), then additional isohexane so that the total solvent volume for each run was 5 mL. Catalyst and activator were used in a 1:1 ratio. Each reaction was performed at a specified temperature range between 50 and 120° C., typically 95° C., while applying about 100 psig of ethylene (monomer) gas. Each reaction was allowed to run for about 1 hour (˜3600 seconds) or until approximately 20 psig of ethylene gas uptake was observed, at which point the reactions were quenched with air (˜300 psig). When sufficient polymer yield was attained (e.g., at least ˜10 mg), the polyethylene product was analyzed by Rapid GPC, described below.
In a typical experiment, the anilinium borate activators were combined with toluene or methylcyclohexane as diluent and introduced to the parallel, pressure reactor via syringe. By this mechanism of activator introduction, only well dissolved activators could be delivered to the reactor providing a means to discriminate between the polymerization performance of long chain soluble anilinium borates vs. conventional anilinium borates. Following addition of activator, the catalyst Cat 1 was introduced, via syringe as well-dissolved toluene solution and the polymerization was conducted per the methodology described above.

[2] = Solubility studies of the activators (saturated solution in isohexane or methylcyclohexane); type: physicochemical
Outline: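 Solid activators stirred in excess with isohexane or methylcyclohexane for several hours at 25 °C, filtered, and a filtrate aliquot evaporated and weighed. Emulsion-forming activators titrated with solvent until homogeneous, with activator mass found gravimetrically. Saturated concentration given in mM.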

[3] = as above; type: physicochemical; settings: methylcyclohexane

N,N-dimethylanilinium tetrakis(heptafluoronaphthalen-2-yl)borate [DMAH-BF28, reference compound]
quantity of polymer obtained with methylcyclohexane as diluent ([1]; Cat 1, activator in methylcyclohexane): insufficient for analysis
activity ([1]; activator diluent MeCy (methylcyclohexane)): 0.0 kg/mmol/h
activity ([1]; activator diluent Toluene, listed as C2): 441.3 kg/mmol/h and 392.4 kg/mmol/h and 390.1 kg/mmol/h and 408.1 kg/mmol/h

CCCCCCCCCCCCCCCCCC[NH+](CCCCCCCCCCCCCCCCCC)c1ccc(C)cc1.Fc1c(F)c(F)c2c(F)c([B-](c3c(F)c(F)c4c(F)c(F)c(F)c(F)c4c3F)(c3c(F)c(F)c4c(F)c(F)c(F)c(F)c4c3F)c3c(F)c(F)c4c(F)c(F)c(F)c(F)c4c3F)c(F)c(F)c2c1F [DOdTH-BF28, 4-methyl-N,N-dioctadecylbenzenaminium-BF28]
Solubility limit in i-hexane (mM at 25° C.) ([2]; isohexane): 120 mM
Solubility limit in i-hexane (wt % at 25° C.) ([2]; isohexane): 29 wt %
Solubility limit in MeCy (mM at 25° C.) ([2]; methylcyclohexane): 160 mM
Solubility limit in MeCy (wt % at 25° C.) [3]: 35 wt %
